Data reported in a melting point compilation (Tetko et al.; mined from patent text by program, amines drawn as free bases though some values may be those of a salt).

| Compound | melting point |
| --- | --- |
| CN1Cc2ccccc2[C@H]2c3cccc4[nH]cc(c34)C[C@@H]21 (relative stereo) | 215 °C |
| CCOC(=O)c1c(N)c(C)c(C)n1C | 63 to 64 °C |
| CC(=O)Nc1cccc(-n2ncc(=O)n(Cc3ccc(Cl)cc3F)c2=O)c1 | 184 °C |
| COc1ccccc(NS(=O)(=O)c2ccc(C)cc2)c1=O | 163 to 164 °C |
| Nc1nc2[nH]c(CCC#Cc3cscc3C(=O)N[C@@H](CCC(=O)O)C(=O)O)cc2c(=O)[nH]1 | 181 to 182 °C |
| CCOC(=O)C(=CNc1cnsn1)C(=O)c1cc(F)c(F)cc1F | 117 to 118 °C |
| CCOC(=O)/C=C/c1cn(-c2ccc(Cl)cn2)nc1C(C)C | 105 to 106 °C |
| C#CCSc1nc(Cl)cc(Cl)n1 | 67 to 70 °C |
| OC(c1ccc2c(c1)OCCN2)(C(F)(F)F)C(F)(F)F | 119 to 120 °C |
| NC(=O)C1CCc2ccccc21 (configuration not stated) | 151 to 154 °C |
| O=C1CCOc2cc(S)ccc21 | 144 to 145 °C |
| O=C(O)C(=O)Nc1cccc(NC(=O)C(=O)O)c1Cl | > 320 °C |
| O=C(O)CCC1CC(c2ccccc2)CCC1O (configuration not stated) | 154 to 155 °C |
| COc1cc2cc(C(C#N)N3CCOCC3)sc2cc1OC (configuration not stated) | 196 to 199 °C |
| CSc1c(Cl)nc(N2CCNCC2)nc1NC(C)C | 147 °C |
| O=C(Nc1ccc(O)cc1)c1c[nH]c2c1C(=O)CCCC2 | 178 to 179 °C |
| Cn1cc(Br)cc([N+](=O)[O-])c1=O | 122 to 123 °C |
| N#Cc1cc(C=O)ccc1-n1cncn1 | 134 to 141 °C |
| CCn1cc(C(=O)Cl)c(=O)c2ccc(Cl)nc21 | 186 to 188 °C |
| COc1ccc(-n2c(CF)nc3ccc([N+](=O)[O-])cc3c2=O)c(C)c1 | 190 to 192 °C |
| COc1cc2c(=O)[nH]c3c(c2cc1OC)c1ccccc1n3C | > 310 °C |

| Compound | melting point |
| --- | --- |
| CCc1cc(C(=O)c2ccccc2Cl)c(-n2c(C)nnc2CNC(=O)/C=C/c2ccccc2)s1 | 150 to 151 °C |
| Cc1nc2c(s1)-c1nc(Nc3ccc(O)cc3)ncc1CC2 | 268 to 269 °C |
| CCCN(CCC)S(=O)(=O)c1cc(-c2csc(=Nc3ccccc3C)n2C)ccc1Cl | 114 to 116 °C |
| CCCCOC1CCCC(C2NC(=O)C2C(C)O[Si](C)(C)C(C)(C)C)C1O (configuration not stated) | 105 to 106 °C |
| CC1CN(c2cccc(F)c2)N=C1N (configuration not stated) | 78 to 80 °C |
| CCOC(=O)c1c(-c2ccccc2)c2ccc(Cl)cc2c(=O)n1C | 152 to 153 °C |
| CCCCCCc1cc2c(s1)-n1c(C)nnc1CN=C2c1ccc(C)cc1C | 99 to 101 °C |
| CCCCCCCCCCCCCCCCCCCCCCCCNc1ccc(C(=O)C(F)(F)F)cc1 | 89 to 90 °C |
| Cc1occ(C(F)(F)F)c1C(=O)O | 140 °C |
| CC(C)(C)OC(=O)C=Cc1ccc2ccccc2c1 | 74 to 75 °C |
| Cc1nc(-c2cn(Cc3ccccc3)nn2)sc1C(=O)NCc1ccccc1 | 108 to 109 °C |
| CC1(C)OC(=O)Nc2ccc(-c3cc(C#N)cc(C#N)c3)cc21 | 288 to 289 °C |
| CC1CC(=O)C=C(N)C1 (configuration not stated) | 165 to 169 °C |
| Cc1c(F)ccc(C#N)c1Cl | 63 to 65 °C |
| O=Cc1cccc(-c2ccccn2)n1 | 41 to 43 °C |
| CCOC(=O)C=Cc1ccc(C(=O)Nc2ccc3c(c2)C(C)(C)CCC3(C)C)cc1 | 166 °C |
| COc1cccc2c1C(=O)NS2(=O)=O | 224 °C |
| Cc1nc(C(C)C)nc(C)c1N1CCCn2c1nc1c(Cl)ccc(C(OC(F)F)C(F)(F)F)c12 (configuration not stated) | 204 to 206 °C |
| O=Cc1c2n(c3ccccc13)CCNCC2 | 167 to 168 °C |
| CCc1nnc2nc(-c3ccccc3)ccn12 | 246 to 247 °C |
| COC(=O)[C@@H]1C[C@@H](Br)C(=O)[C@@H]2[C@@]3(C)C[C@@H](c4ccoc4)OC(=O)[C@H]3CC[C@]21C | 170 to 173 °C |

| Compound | melting point |
| --- | --- |
| Nc1nc2ccccc2c2c1ncn2C1CC(O)C(CO)O1 (configuration not stated) | 232 to 237 °C |
| COc1cccc2c(=O)[nH]c(C)nc12 | 261 to 262 °C |
| CCOC(=O)c1cnc2cc(C)sc2c1O | 240 to 245 °C |
| COc1c(C)c(C)c2c(c1C)C(c1ccc(CBr)cc1)C(C)(C)O2 (configuration not stated) | 97 to 98 °C |
| CC(C)c1nc2c(nc1C(C)C)C(=O)CCC2 | 92 to 94 °C |
| CCOC(=O)C(C#N)=C(SC)N1CCc2ccccc2CC1 | 88 to 93 °C |
| COC(=O)COc1cccc2c(CCOS(C)(=O)=O)coc12 | 111 °C |
| COc1ccc2c(c1)sc1ncc(C=O)n12 | 168 to 169 °C |
| CCCc1nn2ncc(C(=O)OCOC(=O)C(C)(C)C)c2n1Cc1ccc(-c2ccccc2-c2nnn[nH]2)cc1 | 157 to 158 °C |
| [N-]=[N+]=Nc1cc(=O)oc2ccccc12 | 159 to 160 °C |
| COC(=O)c1ccc(/C=C\c2ccc(C(=O)OC)cc2Cl)cc1 | 134 to 135 °C |
| Cc1cc2c(c3ccc(=O)[nH]c13)OC(CCCl)C2 (configuration not stated) | 209 to 211 °C |
| COC(C)=CC(=O)Nc1ccc(Cl)c(Cl)c1 | 123 °C |
| COc1c(Cc2ccccc2)cc(S(N)(=O)=O)c2ccccc12 | 159 to 161 °C |
| CC(C)(C)OC(=O)NCC(=O)Nc1cccc(NC(=N)N2CCCC2)c1 | 182 to 183 °C |
| CCc1ccc(C(=O)Sc2ccccn2)cc1 | 48 to 50 °C |
| Nc1ccccc1SSc1ccccc1N | 88 to 89 °C |
| Nc1ccccc1NC(=O)c1ccc(NC(=O)CO)cc1 | 221 to 223 °C |
| Cc1ccsc1C(=O)NCCCSc1ccncc1 | 104 to 105 °C |
| COCCOc1ccc(CCNC(=O)C=Cc2ccc(OC)cc2OC)cc1S(N)(=O)=O | 175 to 178 °C |

The next lines start with the values.

| melting point | Compound |
| --- | --- |
| 220 to 222 °C | Cc1ccccc1C(=O)Nc1ccc(C(=O)N2CCCC(OCC(=O)O)c3cc(Cl)ccc32)cn1 (configuration not stated) |
| 244 to 247 °C | CCCOc1ccccc1-c1ccc(C#N)c(=O)[nH]1 |
| 200 to 202 °C | CS(=O)(=O)Nc1ccc(CC(NC(=O)C(c2ccccc2)c2ccccc2)c2ccccc2)cc1 (configuration not stated) |
| 166 to 169 °C | O=C(Cn1c(-c2nonc2NCCCO)nc2ccccc21)c1ccc(Cl)cc1 |
| 248 to 249 °C | Cc1ccc2c(c1)c(Cc1nc3cc(C(F)(F)F)ccc3s1)cn2CC(=O)O |
| 250 to 252 °C | CC(C)c1ccc(-n2c(CC(=O)O)c(C(=O)O)c3cc(Oc4ccc(C(F)(F)F)cc4)ccc32)cc1 |
| 90 °C | CCOCc1nc2c(N)nc3ccc(OCc4ccccc4)cc3c2n1CC(C)(C)NC(=O)C1CCCCC1 |
| 97 to 99 °C | CCCCCOc1ccc2cc(C(C)C(=O)O)ccc2c1 (configuration not stated) |
| 220 to 240 °C | COc1ccc(Nc2nc(-c3ccccc3)cc(N3CCC(O)CC3)n2)cc1Cl |
| > 200 °C | O=c1c(C2=CS(=O)(=O)c3cc(NS(=O)(=O)c4ccccc4)ccc3N2)c(O)c2cc(F)ccc2n1CCC1CC1 |
| 250 to 252 °C | O=C1NCCc2c(-c3ccc(Cl)cc3)[nH]c3cccc1c23 |
| 172 °C | Cc1cccc(-c2sc(N)nc2-c2ccnc(-c3ccc(OCC(=O)N4CCOCC4)cc3)c2)n1 |
| 201 to 202 °C | CS(=O)c1ccc(-c2nn3c(c2-c2ccncc2)NCCC3)cc1 (configuration not stated) |
| 108 to 109 °C | CCCCNC(=O)N1CC(Oc2cccc(C(F)(F)F)c2)C1 |
| 155 to 156 °C | COc1ccc(CSc2nnc(-c3ccc4nccn4c3)o2)cc1 |
| 165 to 167 °C | O=C(OC1Oc2ccccc2-n2cnc(-c3noc(C4CC4)n3)c21)c1ccccc1 (configuration not stated) |
| 140 °C | COc1cccc(-c2ncc(C(=O)N(C)Cc3cccc(O)c3)s2)c1F |
| 217 to 218 °C | O=C(CCl)Nc1ccc2c(c1NC(=O)COc1ccccc1)C(=O)c1ccccc1C2=O |
| 87 to 93 °C | CN(C)CCCNC(=O)c1ccc(-c2nnc(CSCCCCOc3ccccc3)o2)cc1 |
| 230 to 232 °C | N=C(NS(=O)(=O)C=Cc1ccc([N+](=O)[O-])cc1)c1cccc([N+](=O)[O-])c1 |

| melting point | Compound |
| --- | --- |
| 230 to 232 °C | Cn1cc(-c2cc3cccnc3[nH]2)c2cc(C(=O)N(CCO)CCO)ccc21 |
| > 230 °C | CSc1nn2c(N)cc(C)nc2c1S(=O)(=O)c1ccc(F)cc1 |
| 93.5 to 94.5 °C | O=[N+]([O-])c1ccc(OCCCN2CCC(C(O)(c3ccc(F)cc3)c3ccc(F)cc3)CC2)cc1 |
| 154 to 157 °C | CSc1ccc(/C=C2/C(C)=C(CCCCN(O)C(N)=O)c3cc(F)ccc32)cc1 |
| 86 °C | CC(C)NCC(O)COc1ccc(OCCSCC2CC2)cc1 (configuration not stated) |
| 231 to 234 °C | CS(=O)(=O)c1cccc(NC(=O)c2cnn3c(C4CC4)cc(-c4ccc(C(F)(F)F)cc4)nc23)c1 |
| 188 to 190 °C | CC(C(=O)O)c1ccc2cc(OCc3ccc4ccc(Cl)cc4n3)ccc2c1 (configuration not stated) |
| 141 to 143 °C | Cc1ccccc1C(Oc1cc(OCc2ccoc2)ccc1C#N)C(=O)O (racemic) |
| 146 to 147 °C | CC1(C)CC(=O)N(CCCCN2CCN(c3nsc4ccccc34)CC2)C(=O)C1 |
| 116 to 118 °C | COC(=O)/C=C/C1=C(c2ccc(OC)cc2)c2ccc(OC)cc2CC1 |
| 113 to 114 °C | COc1ccc(C(=CCCC(=O)O)c2ccc(OC)cc2)cc1 |
| 99 to 101 °C | COc1ccc(-c2c(C=O)ccc3cc(OC)ccc23)cc1 |
| 94 to 95 °C | CC(=O)NCS[C@@H]1CC(=O)N(Cc2ccc(Oc3ccc(F)cc3)nc2)C1 |
| 288 to 291 °C | Cn1cccc1CCNC(=O)C(C#N)C(=O)c1nn(-c2ccccc2)c2c1Cc1ccccc1-2 (configuration not stated) |
| 120 to 121 °C | COc1cc2c(Nc3cccc(Cl)c3F)ncnc2cc1O[C@H]1CCCN(C(=O)CN2CCN(C)CC2)C1 |
| 152 to 155 °C | CC(=O)C(=NNc1ccc(Oc2ccccc2)cc1)Sc1ccc(Cl)cc1 |
| 205 °C | COc1ccc(Cl)cc1NC(=O)Nc1ccc(N2CCN(C(=O)OC(C)(C)C)CC2)cc1 |
| 155 to 157 °C | COc1ccc(NCC2CCn3c(nc4ccccc43)S2)cc1 (configuration not stated) |
| 133 to 135 °C | COc1cc(C(C)=O)ccc1OCCN1CCC(c2noc3cc(Cl)ccc23)CC1 |
| > 250 °C | CCc1ccc(Nc2nc3cc(NC(=O)c4ccc(CC)cc4)ccc3o2)cc1 |
